What was measured:
[1] = system: Vero cells; test: Cellular uptake, distribution and metabolism of radiolabeled n-docosanol; assay type: in vitro ADME, African Green monkey
Description: FIG. 10 depicts data showing that radioactive metabolites of n-[^14C]docosanol display the properties of phosphatidylcholine and phosphatidylethanolamine. A portion (0.5 ml) of the methanol eluate of the silica lipid fractionation was evaporated under nitrogen, resuspended in 20 μl chloroform:methanol (3:2; v:v) and spotted on a silica thin layer chromatography (TLC) sheet. After development with chloroform:methanol:acetic acid:water (60:50:1:4; v:v:v:v), the positions of standards were determined by staining with iodine vapors and the cpm per fraction determined by scintillation spectrometry after cutting the plastic-backed sheet into 5 mm strips.
FIG. 11 depicts data showing that n-[^14C]-Docosanol is metabolized more by Vero cells than by MDBK cells. Vero or MDBK cells were plated as described. n-[^14C]-docosanol was added to […] (0.24 mM Tetronic 908) and the cultures were incubated 72 hours at 37° C./CO2. Cells were extracted and analyzed on TLC with hexane:diethyl ether:acetic acid (20:30:1; v:vv) as the developing solvent. With this solvent system the polar phosphatides remain at the origin. The position of migration of n-[^14C]-docosanol is indicated. Duplicate plates were treated with an identical suspension lacking the radioactive label, and the numbers of cells in these duplicate plates were determined by counting cells excluding trypan blue with a hemocytometer.
In order to better define the precise mechanism by which n-docosanol exerts its antiviral activity, the cellular uptake, distribution, and metabolism of n-docosanol from surfactant-stabilized suspensions has been studied. The results of such studies have provided some interesting insight into the metabolic basis of the compound's antiviral action. It has been shown that radioactively labeled n-docosanol is progressively incorporated into cultured Vero cells, reaching a peak uptake per cell between 6 and 12 hours after exposure. The process is irreversible, since once the compound is cell-associated it cannot be removed even with extensive washing with cesium bromide, which effectively removes nonspecifically associated cell-bound particles.
Nonmetabolized n-docosanol was previously eluted from the silica with chloroform. As shown, approximately 62% of the counts migrated in the region of phosphatidylcholine and 38% migrated in the region of phosphatidylethanolamine.
Of the counts that are metabolized in two cells lines, the relative amounts in the major classes of phosphatides that are formed, phosphatidylcholine and phosphatidylethanolamine, are not different in the two cell lines.

[2] = system: Friend Virus; test: Friend Virus replication in primary embryo fibroblast cultures; assay type: cell-based
[3] = system: HSV-1; test: HSV-1 plaque assay in Vero cells, time of drug incubation and removal; assay type: cell-based; settings: 9 mM
Description: (A) Vero cells were plated and incubated with 9 mM n-docosanol, the corresponding control vehicle or no addition for 0, 3, 6, or 24 h prior to the addition of HSV-1. The viral plaque assay was continued and the number of p.f.u. determined. The data are expressed as % inhibition compared to wells receiving no treatment. (B) Vero cells were plated, n-docosanol or the corresponding control vehicle was added and cells were incubated at 37° C. in 10% humidified CO2. After 21, 24, 25, 26, and 27 h (6, 3, 2, 1, and 0 h before the addition of HSV-1), media containing drug was removed and the cells were washed with media. After a total of 27 h, HSV-1 was added to all wells. Two hours later virus-containing media was removed and replaced with fresh media lacking virus or drugs. The cultures were incubated and processed for determination of the number of HSV-induced plaques as in (A). […]
The cultures were incubated for an additional 42-44 h, washed once with fresh medium, stained and fixed (the staining/fixative consists of 1.25 mg/ml of carbol-fuchsin plus 2.5 mg/ml of methylene blue in methanol) and then scored for HSV-induced plaques using a dissecting microscope (10× magnification). […]

[4] = Water solubility; assay type: physicochemical
[5] = saturating concentrations, within 24 hours

With `CCCCCCCCCCCCCCCCCCCCCCO` [n-docosanol] the “total uptake and relative metabolic conversion, Vero versus MDBK cells” value [1] was 3-4 times higher, the “radioactive compound associated with nuclear fractions” value ([1]; after 12 hours of exposure) was “less than 1%” and the “radioactive compound contained in cell membranes” value ([1]; after 12 hours of exposure) was 75%. For the same molecule, the “molecules of n-docosanol added to culture that enter the cell” value ([1]; radiolabeled n-docosanol) was “less than 1 out of 1000”, the cell-associated amount [1, 5] was ~8×10^9 molecules per cell and the “fraction of total n-docosanol added that becomes cell-associated” value [1, 5] was “less than 1%”. For the same molecule, the “activity against replication of Friend Virus” value [2] was “very potent activity”, the “inhibition of plaque formation” value ([3]; 6-h interval between drug removal and HSV-I addition) was “no inhibition of HSV-I plaque formation was observed” and the inhibition at 9000 µM ([3]; Human alphaherpesvirus 1, Vero, added simultaneously with, or 3 h prior to virus addition, read-out: inhibition of plaque formation) was 28%. For the same molecule, the water solubility [4] was “water-insoluble”.
